From US6448259B1 (dated 2002)

## COc1ccc(CNC(=O)c2c[nH]c3c(c2=O)CCC3)cc1
  melting point: 240 to 241 °C

## COc1ccc(NC(=O)c2c[nH]c3c(c2=O)CCCC3)cc1
  melting point: 287 to 290 °C

## Cc1csc(NC(=O)c2c[nH]c3c(c2=O)CCCC3)n1
  melting point: 350 to 352 °C

## O=C(Nc1ccc(F)cc1)c1c[nH]c2c(c1=O)CCCC2
  melting point: 324 to 326 °C

## O=C(Nc1cccnc1)c1c[nH]c2c(c1=O)CCCC2
  melting point: 308 °C (dec.)

## COc1cccc(NC(=O)c2c[nH]c3c(c2=O)CCCC3)c1
  melting point: 275 to 280 °C

## COc1ccnc(NC(=O)c2c[nH]c3c(c2=O)CCCC3)c1
  melting point: 312 °C (dec.)

## O=C(NCc1cccc(O)c1)c1c[nH]c2c(c1=O)CCCC2
  melting point: 133 to 136 °C

## O=C(NCc1ccccc1)c1c[nH]c2c(c1=O)CCCC2
  melting point: 257 to 259 °C

## COc1ccc(CNC(=O)c2c[nH]c3c(c2=O)CCCC3)cc1
  melting point: 241 to 244 °C

## O=C(Nc1cccs1)c1c[nH]c2c(c1=O)CCCC2
  melting point: 306 °C (dec.)

## O=C(Nc1ccccc1Cl)c1c[nH]c2c(c1=O)CCCC2
  melting point: 339 to 341 °C

## O=C(Nc1ccsc1)c1c[nH]c2c(c1=O)CCCC2
  melting point: 321 to 324 °C

## O=C(Nc1c(F)cccc1F)c1c[nH]c2c(c1=O)CCCC2
  melting point: 278 to 280 °C

## COc1ccccc1CNC(=O)c1c[nH]c2c(c1=O)CCCC2
  melting point: 217 to 219 °C

## COc1cccc(CNC(=O)c2c[nH]c3c(c2=O)CCCC3)c1
  melting point: 210 to 212 °C

## O=C(NCc1ccccc1F)c1c[nH]c2c(c1=O)CCCC2
  melting point: 206 to 208 °C

## O=C(Nc1ccccn1)c1c[nH]c2c(c1=O)CCC2
  melting point: 294 to 295 °C

## Cc1csc(NC(=O)c2c[nH]c3c(c2=O)CCC3)n1
  melting point: 304 to 305 °C

## O=C(Nc1nccs1)c1c[nH]c2c(c1=O)CCC2
  melting point: 305 °C (dec.)

## O=C(Nc1cccc(F)c1)c1c[nH]c2c(c1=O)CCC2
  melting point: 340 °C (dec.)

## O=C(Nc1ccccc1F)c1c[nH]c2c(c1=O)CCC2
  melting point: 330 °C (dec.)

## O=C(Nc1ccc(F)cc1F)c1c[nH]c2c(c1=O)CCC2
  melting point: 328 °C (dec.)

## O=C(Nc1c(F)cccc1F)c1c[nH]c2c(c1=O)CCC2
  melting point: 297 °C (dec.)

## O=C(NCc1ccccc1)c1c[nH]c2c(c1=O)CCC2
  melting point: 149 to 150 °C

## COc1cccc(CNC(=O)c2c[nH]c3c(c2=O)CCC3)c1
  melting point: 204 to 205 °C

## COc1ccccc1CNC(=O)c1c[nH]c2c(c1=O)CCC2
  melting point: 243 to 244 °C

## O=C(NCc1c(F)cccc1F)c1c[nH]c2c(c1=O)CCC2
  melting point: 294 to 295 °C

## O=C(Nc1cccs1)c1c[nH]c2c(c1=O)CCC2
  melting point: 210 °C (dec.)

## CCCCNC(=O)c1c[nH]c2c(c1=O)CCCCC2
  melting point: 138 to 143 °C

## O=C(Nc1ccccc1)c1c[nH]c2c(c1=O)CCC2
  melting point: 295 to 296 °C

## O=C(Nc1nccs1)c1c[nH]c2c(c1=O)CCCCC2
  melting point: 301 °C (dec.)

## COc1ccc(NC(=O)c2c[nH]c3c(c2=O)CCCCC3)cc1
  melting point: 240 to 242 °C

## O=C(NCc1ccccc1)c1c[nH]c2c(c1=O)CCCCC2
  melting point: 224 to 226 °C

## COc1ccc(CNC(=O)c2c[nH]c3c(c2=O)CCCCC3)cc1
  melting point: 203 to 205 °C

## O=C(NCc1ccc(F)cc1)c1c[nH]c2c(c1=O)CCCCC2
  melting point: 219 to 222 °C

## O=C(NCc1cccc(F)c1)c1c[nH]c2c(c1=O)CCCC2
  melting point: 267 to 270 °C

## O=C(NCc1ccc(F)cc1)c1c[nH]c2c(c1=O)CCCC2
  melting point: 278 to 280 °C

## O=C(NCc1cccc(Cl)c1)c1c[nH]c2c(c1=O)CCCC2
  melting point: 247 to 249 °C

## O=C(NCc1ccc(Cl)cc1)c1c[nH]c2c(c1=O)CCCC2
  melting point: 283 to 285 °C

## COc1ccc(CNC(=O)c2c[nH]c3c(c2=O)CCCC3)c(F)c1
  melting point: 257 to 259 °C

## O=C(Nc1ccccc1F)c1c[nH]c2c(c1=O)CCCC2
  melting point: 241 to 244 °C

## CCOc1ccc(CNC(=O)c2c[nH]c3c(c2=O)CCCC3)cc1
  melting point: 241 to 243 °C

## Cc1ccc(CNC(=O)c2c[nH]c3c(c2=O)CCCC3)cc1
  melting point: 270 to 273 °C

## Cc1cccc(CNC(=O)c2c[nH]c3c(c2=O)CCCC3)c1
  melting point: 242 to 245 °C

## CCOc1ccc(CNC(=O)c2c[nH]c3c(c2=O)CCCC3)c(F)c1
  melting point: 178 to 181 °C

## CC(C)Oc1ccc(CNC(=O)c2c[nH]c3c(c2=O)CCCC3)c(F)c1
  melting point: 197 to 200 °C

## O=C(NCc1cccs1)c1c[nH]c2c(c1=O)CCCC2
  melting point: 245 to 248 °C

## COc1ccc(NC(=O)c2c[nH]c3c(c2=O)CCC3)cc1
  melting point: 330 to 332 °C

## COc1cccc(NC(=O)c2c[nH]c3c(c2=O)CCC3)c1
  melting point: 320 °C (dec.)

## O=C(Nc1ccc(OCCO)cc1)c1c[nH]c2c(c1=O)CCC2
  melting point: 220 to 222 °C

## O=C(NCc1ccc2c(c1)OCO2)c1c[nH]c2c(c1=O)CCCC2
  melting point: 263 to 265 °C

## CCOc1ccc(CNC(=O)c2c[nH]c3c(c2=O)CCC3)c(F)c1
  melting point: 217 to 219 °C

## CC(C)Oc1ccc(CNC(=O)c2c[nH]c3c(c2=O)CCC3)c(F)c1
  melting point: 214 °C (dec.)

## CCCOc1ccc(CNC(=O)c2c[nH]c3c(c2=O)CCC3)c(F)c1
  melting point: 209 to 211 °C

## O=C(NCc1ccccc1F)c1c[nH]c2c(c1=O)CCC2
  melting point: 259 to 261 °C

## O=C(Nc1cccc(F)c1)c1c[nH]c2c(c1=O)CCCC2
  melting point: 319 to 320 °C

## O=C(Nc1ccccc1)c1c[nH]c2c(c1=O)CCCC2
  melting point: 299 to 300 °C

## O=C(Nc1nccs1)c1c[nH]c2c(c1=O)CCCC2
  melting point: 260 °C (dec.)
